Laboratory results: patent publication US11046716B2, “Beta-lactamase inhibitors” (priority 2015, dated 2021)
Where two headings read alike, the source gives them in different places.

Tests used:
SHV-5 = target: T1, SHV-5 (Klebsiella pneumoniae, UniProt P0A3M1); assay: β-lactamase enzyme inhibition assay, SHV-5 (cefotaxime substrate); format: biochemical
T1 construct: made in house; host or cells: E. coli BL21(DE3)
Outline: (§1)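 Read-out is the rate of β-lactam ring hydrolysis monitored by absorbance: 300 nm for imipenem with KPC-2 and 260 nm for cefotaxime with SHV-5. Recombinant native enzymes were first incubated with compound at 37 °C for 15 min. The IC50 is the inhibitor concentration that halves the initial hydrolysis rate.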

KPC-2 = target: T2, KPC-2 (Klebsiella pneumoniae, UniProt Q9F663); assay: β-lactamase enzyme inhibition assay, KPC-2 (imipenem substrate); format: biochemical
T2 construct: made in house; host or cells: E. coli BL21(DE3)
Outline: as §1

VIM-2 = target: T3, VIM-2 (Escherichia coli, UniProt Q5U7L7); assay: β-lactamase enzyme inhibition assay, VIM-2 (nitrocefin substrate); format: biochemical
T3 construct: made in house; host or cells: E. coli BL21(DE3)
Outline: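 IC50 reflects the inhibitor concentration cutting the initial nitrocefin hydrolysis rate by half, compared with control wells lacking inhibitor. Substrate was used at 100 μM final after a 15 min, 37 °C enzyme–inhibitor preincubation.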

AmpC = target: T4, AmpC (Enterobacter cloacae, UniProt P05364); assay: β-lactamase enzyme inhibition assay, p99 AmpC (nitrocefin substrate); format: biochemical
T4 construct: made in house; host or cells: E. coli BL21(DE3)
Outline: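 Read-out is the rate of β-lactam ring hydrolysis monitored by absorbance. Recombinant native enzymes were first incubated with compound at 37 °C for 15 min. The IC50 is the inhibitor concentration that halves the initial hydrolysis rate.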

OXA-48 = OXA-48 (UniProt Q6XEC0); assay: β-lactamase enzyme inhibition assay, Class D oxacillinase; format: biochemical; conditions: read-out: OXA-48
[1] = test system: E. coli expressing the Class A Extended Spectrum Beta-Lactamase (ESBL) CTX-M-15; assay: Broth microdilution MIC assay with ceftazidime, E. coli CTX-M-15; format: cell-based; conditions: Fixed CAZ (ceftazidime) 4 μg/mL; E. coli ESBL4 CTX-M-15
Outline: (§2)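 Potentiation format: the β-lactam was held at 4 μg/ml while the test compound was serially diluted, and growth was scored visually after overnight (16-20 h) incubation at 37° C.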

[2] = test system: E. cloacae expressing the Class C P99; assay: Broth microdilution MIC assay with ceftazidime, E. cloacae P99; format: cell-based; conditions: Fixed CAZ (ceftazidime) 4 μg/mL; E. cl. 144200 p99 AmpC
Source text: To determine the ability of test compounds to potentiate the inhibition of the growth of bacterial strains that produce beta-lactamase enzymes in the presence of a β-lactam antibiotic, classic cell based broth microdilution MIC assays were employed. Six bacteria strains producing beta-lactamase enzymes were used: E. coli expressing the Class A Extended Spectrum Beta-Lactamase (ESBL) CTX-M-15, E. cloacae expressing the Class C P99, K. pneumoniae expressing the Class A carbapenemase KPC-2, P. aeruginosa expressing the Class B carbapenemase VIM-2, K. pneumoniae expressing the class A carbapenemase KPC-2 and the class B carbapenemase VIM-4, and K. pneumoniae producing the Class D carbapenemase OXA-48. The assay was conducted in Cation Adjusted Mueller Hinton Broth (CAMHB, BD #212322, BD Diagnostic Systems, Sparks, Md.). Bacteria strains were grown for 3-5 hours in CAMBH broth. Test compounds (Examples 1-94) were added to a microtiter plate in 2-fold serial dilutions in CAMHB in a final concentration range of 16 μg/mL to 0.125 μg/ml. An overlay of CAMHB containing a Beta-lactam was added to the compounds at a final static concentration of 4 μg/ml. […] In addition to the titration of test compounds the MICs of a panel of control beta-lactams is also tested to ensure the strains are behaving consistently from test to test. Once the test compound and antibiotics are added the plates can be inoculated according to CLSI broth microdilution method. After inoculation the plates are incubated for 16-20 hours at 37° C. then the Minimal Inhibitory Concentration (MIC) of the test compound is determined visually.
Using the methodology described above, examples of the current invention were evaluated for their ability to inhibit the growth of β-lactamase-producing bacteria in the presence of a β-lactam antibiotic.

[3] = test system: K. pneumoniae expressing the Class A carbapenemase KPC-2; assay: Broth microdilution MIC assay with meropenem, K. pneumoniae KPC-2; format: cell-based; conditions: Fixed Mero (meropenem) 4 μg/mL; K. p. 156319 KPC-3
Outline: as §2

[4] = test system: P. aeruginosa expressing the Class B carbapenemase VIM-2; assay: Broth microdilution MIC assay with meropenem, P. aeruginosa VIM-2; format: cell-based; conditions: Fixed Mero (meropenem) 4 μg/mL; P. aerug. 2775 VIM-2
Outline: as §2

[5] = test system: K. pneumoniae expressing the class A carbapenemase KPC-2 and the class B carbapenemase VIM-4; assay: Broth microdilution MIC assay with meropenem, K. pneumoniae KPC-2 and VIM-4; format: cell-based; conditions: Fixed Mero (meropenem) 4 μg/mL; K. p. A-1797 KPC-2 VIM-4
Outline: as §2

[6] = test system: K. pneumoniae producing the Class D carbapenemase OXA-48; assay: Broth microdilution MIC assay with meropenem, K. pneumoniae OXA-48; format: cell-based; conditions: Fixed Mero (meropenem) 4 μg/mL; K. p. 11978 OXA-48
Outline: as §2

[7] = Class A, imipenem substrate, 300 nm, read-out: KPC-2
[8] = Class B, nitrocefin substrate, 486 nm, read-out: VIM-2

T1 sequence (P0A3M1 22-286): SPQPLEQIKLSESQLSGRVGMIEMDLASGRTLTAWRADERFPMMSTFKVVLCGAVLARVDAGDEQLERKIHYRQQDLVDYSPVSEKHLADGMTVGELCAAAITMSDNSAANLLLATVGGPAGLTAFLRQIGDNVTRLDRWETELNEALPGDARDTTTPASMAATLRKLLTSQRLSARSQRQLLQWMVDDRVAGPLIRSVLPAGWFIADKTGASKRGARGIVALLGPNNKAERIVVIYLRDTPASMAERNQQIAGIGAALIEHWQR
T4 sequence (P05364 21-381): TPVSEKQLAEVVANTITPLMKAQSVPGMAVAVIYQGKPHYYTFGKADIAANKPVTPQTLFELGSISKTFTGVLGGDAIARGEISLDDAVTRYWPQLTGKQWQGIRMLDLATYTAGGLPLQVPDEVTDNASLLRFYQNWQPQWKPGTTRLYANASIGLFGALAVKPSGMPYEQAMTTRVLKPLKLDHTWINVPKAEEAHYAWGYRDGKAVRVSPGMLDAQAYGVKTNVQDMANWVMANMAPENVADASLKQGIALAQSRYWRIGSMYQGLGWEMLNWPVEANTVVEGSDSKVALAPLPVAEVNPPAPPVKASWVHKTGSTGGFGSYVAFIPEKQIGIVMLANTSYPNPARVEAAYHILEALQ
T2 sequence (Q9F663 25-293, looked up): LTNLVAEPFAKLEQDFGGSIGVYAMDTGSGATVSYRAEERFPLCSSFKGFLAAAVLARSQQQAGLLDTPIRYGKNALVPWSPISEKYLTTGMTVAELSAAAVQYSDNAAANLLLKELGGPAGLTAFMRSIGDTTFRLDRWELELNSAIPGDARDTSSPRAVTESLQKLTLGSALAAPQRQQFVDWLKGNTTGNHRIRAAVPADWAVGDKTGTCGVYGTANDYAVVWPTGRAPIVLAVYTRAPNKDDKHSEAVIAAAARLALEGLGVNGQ

Structure (SMILES) | IC50 (SHV-5) | IC50 (KPC-2) | IC50 (VIM-2) | IC50 (AmpC) | IC50 (OXA-48) | MIC (μg/mL) of Exemplary Compounds in presence of fixed β-lactams: E. coli ESBL4 CTX-M-15 [1] | MIC (μg/mL) of Exemplary Compounds in presence of fixed β-lactams: E. cl. 144200 p99 AmpC [2] | MIC (μg/mL) of Exemplary Compounds in presence of fixed β-lactams: K. p. 156319 KPC-3 [3] | MIC (μg/mL) of Exemplary Compounds in presence of fixed β-lactams: P. aerug. 2775 VIM-2 [4] | MIC (μg/mL) of Exemplary Compounds in presence of fixed β-lactams: K. p. A-1797 KPC-2 VIM-4 [5] | MIC (μg/mL) of Exemplary Compounds in presence of fixed β-lactams: K. p. 11978 OXA-48 [6] | IC50 (KPC-2; [7]) | IC50 (VIM-2; [8])
NCCc1cnnn1CC(=O)N[C@H]1Cc2cccc(C(=O)O)c2OB1O [Example 121, (R)-3-(2-(5-(2-aminoethyl)-1H-1,2,3-triazol-1-yl)acetamido)-2-hydroxy-3,4-dihydro-2H-benzo[e][1,2]oxaborinine-8-carboxylic acid] | < 100 nM | < 100 nM | 100 to 1000 nM | < 100 nM | < 100 nM | C (C represents an MIC of <1 μg/mL) | C (C represents an MIC of <1 μg/mL) | C (C represents an MIC of <1 μg/mL) | C (C represents an MIC of <1 μg/mL) | B (B represents an MIC between 1 and 16 μg/mL inclusive) | B (B represents an MIC between 1 and 16 μg/mL inclusive) | – | –
COc1c(C[C@H](NC(=O)Cn2cc(CN)nn2)B(O)O)cccc1C(=O)O [Example 31, (R)-3-(2-(2-(4-(aminomethyl)-1H-1,2,3-triazol-1-yl)acetamido)-2-boronoethyl)-2-methoxybenzoic acid] | < 100 nM | – | – | 100 to 1000 nM | 1000 to 10000 nM | B (B represents an MIC between 1 and 16 μg/mL inclusive) | C (C represents an MIC of <1 μg/mL) | B (B represents an MIC between 1 and 16 μg/mL inclusive) | C (C represents an MIC of <1 μg/mL) | B (B represents an MIC between 1 and 16 μg/mL inclusive) | A (A represents an MIC>16 μg/mL) | < 100 nM | 100 to 1000 nM
CC(C)(C(=O)N[C@H]1Cc2cccc(C(=O)O)c2OB1O)n1cc(CNC(=N)N)nn1 [Example 39, (R)-3-(2-(4-(guanidinomethyl)-1H-1,2,3-triazol-1-yl)-2-methylpropanamido)-2-hydroxy-3,4-dihydro-2H-benzo[e][1,2]oxaborinine-8-carboxylic acid] | < 100 nM | – | – | < 100 nM | 100 to 1000 nM | C (C represents an MIC of <1 μg/mL) | C (C represents an MIC of <1 μg/mL) | B (B represents an MIC between 1 and 16 μg/mL inclusive) | C (C represents an MIC of <1 μg/mL) | B (B represents an MIC between 1 and 16 μg/mL inclusive) | B (B represents an MIC between 1 and 16 μg/mL inclusive) | < 100 nM | < 100 nM
O=C(Cn1cc(CO)nn1)N[C@H]1Cc2cccc(C(=O)O)c2OB1O [Example 1, (R)-2-hydroxy-3-(2-(4-(hydroxymethyl)-1H-1,2,3-triazol-1-yl)acetamido)-3,4-dihydro-2H-benzo[e][1,2]oxaborinine-8-carboxylic acid] | < 100 nM | – | – | < 100 nM | 100 to 1000 nM | C (C represents an MIC of <1 μg/mL) | C (C represents an MIC of <1 μg/mL) | B (B represents an MIC between 1 and 16 μg/mL inclusive) | B (B represents an MIC between 1 and 16 μg/mL inclusive) | B (B represents an MIC between 1 and 16 μg/mL inclusive) | B (B represents an MIC between 1 and 16 μg/mL inclusive) | < 100 nM | 1000 to 10000 nM
NCc1cc(-c2cn(CC(=O)N[C@H]3Cc4cccc(C(=O)O)c4OB3O)nn2)cs1 [Example 55, (R)-3-(2-(4-(5-(aminomethyl)thiophen-3-yl)-1H-1,2,3-triazol-1-yl)acetamido)-2-hydroxy-3,4-dihydro-2H-benzo[e][1,2]oxaborinine-8-carboxylic acid] | < 100 nM | – | – | < 100 nM | 100 to 1000 nM | C (C represents an MIC of <1 μg/mL) | C (C represents an MIC of <1 μg/mL) | C (C represents an MIC of <1 μg/mL) | B (B represents an MIC between 1 and 16 μg/mL inclusive) | B (B represents an MIC between 1 and 16 μg/mL inclusive) | B (B represents an MIC between 1 and 16 μg/mL inclusive) | < 100 nM | 100 to 1000 nM
O=C(Cn1cnnn1)N[C@H]1Cc2cccc(C(=O)O)c2OB1O [Example 97, (R)-3-(2-(1H-tetrazol-1-yl)acetamido)-2-hydroxy-3,4-dihydro-2H-benzo[e][1,2]oxaborinine-8-carboxylic acid] | < 100 nM | – | – | < 100 nM | < 100 nM | C (C represents an MIC of <1 μg/mL) | C (C represents an MIC of <1 μg/mL) | C (C represents an MIC of <1 μg/mL) | B (B represents an MIC between 1 and 16 μg/mL inclusive) | B (B represents an MIC between 1 and 16 μg/mL inclusive) | C (C represents an MIC of <1 μg/mL) | < 100 nM | 100 to 1000 nM
O=C(Cn1nnc(C(=O)O)c1C(=O)O)N[C@H]1Cc2cccc(C(=O)O)c2OB1O [Example 16, (R)-1-(2-((8-carboxy-2-hydroxy-3,4-dihydro-2H-benzo[e][1,2]oxaborinin-3-yl)amino)-2-oxoethyl)-1H-1,2,3-triazole-4,5-dicarboxylic acid] | < 100 nM | – | – | < 100 nM | < 100 nM | B (B represents an MIC between 1 and 16 μg/mL inclusive) | C (C represents an MIC of <1 μg/mL) | B (B represents an MIC between 1 and 16 μg/mL inclusive) | B (B represents an MIC between 1 and 16 μg/mL inclusive) | B (B represents an MIC between 1 and 16 μg/mL inclusive) | B (B represents an MIC between 1 and 16 μg/mL inclusive) | < 100 nM | 1000 to 10000 nM
